Assay results taken from patent publication US5556744A, “Methods and compositions for diagnosing and treating certain HIV infected patients” (The Trustees of the University of Pennsylvania, priority 1994, dated 1996).

What was measured:
[1] = system: maternal HIV+ sera (antibodies); assay: RIA / ELISA binding of maternal HIV+ sera to gp120 and gp41 peptides (Example 3); design: species or system human; settings: for Number of maternal sera binding to peptide: 20 maternal sera; for Binding of maternal sera to peptide (in words): Example 3; for Number of binding maternal sera from the non-transmission group: non-transmission group (13 sera); for Number of binding maternal sera from the transmission group: vertical transmission group (7 sera)
Method in brief: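 Maternal sera, diluted 1:50 and 1:500, were bound overnight at 4°C to peptides immobilized at 10 μg/ml (pH 9.6 carbonate) and blocked with 1% BSA. Read-out was ¹²⁵I-labelled anti-human IgG counts or HRP-TMB OD450. Signal with peptide minus without was expressed relative to seronegative serum.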

[2] = system: HIV-1 infected cells (MN isolate); assay: Anti-syncytial assay (inhibition of HIV-1 MN syncytium formation, SupT1 target cells); format: cell-based
From the text: (§1) The H9 cell line (a cutaneous T lymphoma line) infected by HIV-IIIB [ATCC CRL 8543] was used in the neutralization assay. The H9 cell line infected by HIV-MN was used in the anti-syncytial assays. SupT1 and Hut78 cells were used as the target cell lines for the anti-syncytial and neutralization assays. All cell lines were obtained from the National Institutes of Health AIDS Repository (Bethesda, Md.).
To analyze the effect of the maternal serum samples on HIV-1 fusion, SupT1 cells were used as target cells in an anti-syncytial assay. Dilutions of the different maternal serum samples were made in 96 well plates in RPMI 1640 media containing 10% fetal calf serum at final dilutions of 1:4, 1:8, 1:16, 1:32, 1:64, 1:128, 1:256 or 1:512. HIV-1 infected cells (MN isolate) were then plated in the wells at a density of approximately 10^4 cells per well. SupT1 target cells were then added at 5×10^5 /well and the number of syncytia are determined after 3 days of incubation. Inhibition of syncytium formation by a serum sample was considered significant if the dilution which yielded a 50% reduction in the number of syncytia when compared to control was greater than 1:32. The average number of syncytia in the control (normal human serum) wells at the above dilutions were: 45.5, 48.5, 44, 48, 48.5, 41.5, 42 and 45.5 respectively.

HIV-IIIB viral isolate = assay: Neutralization assay (HIV-IIIB, Hut-78 cells, p24 antigen ELISA); format: cell-based, HIV-1 IIIB
Method: as §1
In a neutralization assay, 20 μl of maternal sera samples was placed in 96 round bottom well plates at final dilutions of 1:10, 1:90 and 1:810 in RPMI. The HIV-IIIB viral isolate was diluted in RPMI to a TCID50 of 100 units/ml. Twenty μl of the virus solution was placed in each well and the plate was incubated for one hour at 4° C. Hut-78 cells were incubated with 2 μg/ml of polybrene for one hour at 37° C. in a CO2 incubator. The HUT-78 cells were washed and resuspended in fresh RPMI to a final concentration of 4×10^6 cells/ml. Ten μl of the cell suspension was added to each well and the plate was incubated for one hour in a 37° C., CO2 incubator.
Fifteen μl of the serum/cell/virus solution was aliquoted to a new plate containing 200 μl of fresh RPMI and incubated for 6 days. After 6 days, 100 μl was used to analyze for p24 antigen. The p24 capture ELISA assay kit (Coulter Corporation, Hialeah, Fla.) was used to perform the measurements.
Further, sera samples at the same dilutions as described above were tested for residual p24 core protein or antibody to insure the results were due only to viral infection.

[3] = Serum No. 1, Non-Transmission Group
[4] = Serum No. 2, Non-Transmission Group
[5] = Serum No. 3, Non-Transmission Group
[6] = Serum No. 4, Transmission Group
[7] = Serum No. 5, Transmission Group
[8] = Serum No. 6, Non-Transmission Group
[9] = Serum No. 7, Non-Transmission Group
[10] = Serum No. 8, Non-Transmission Group
[11] = Serum No. 9, Non-Transmission Group
[12] = Serum No. 10, Transmission Group
[13] = Serum No. 11, Non-Transmission Group
[14] = Serum No. 12, Non-Transmission Group
[15] = Serum No. 13, Transmission Group
[16] = Serum No. 14, Transmission Group
[17] = Serum No. 15, Transmission Group
[18] = Serum No. 16, Non-Transmission Group
[19] = Serum No. 17, Non-Transmission Group
[20] = Serum No. 18, Non-Transmission Group
[21] = Serum No. 19, Transmission Group
[22] = Serum No. 20, Non-Transmission Group

Row | Sequence | Number of maternal sera binding to peptide [1] | Binding of maternal sera to peptide (in words) [1] | Binding of maternal HIV+ serum to peptide (sera/NHS ratio) [1, 3] | Binding of maternal HIV+ serum to peptide (sera/NHS ratio) [1, 4] | Binding of maternal HIV+ serum to peptide (sera/NHS ratio) [1, 5] | Binding of maternal HIV+ serum to peptide (sera/NHS ratio) [1, 6] | Binding of maternal HIV+ serum to peptide (sera/NHS ratio) [1, 7] | Binding of maternal HIV+ serum to peptide (sera/NHS ratio) [1, 8] | Binding of maternal HIV+ serum to peptide (sera/NHS ratio) [1, 9] | Binding of maternal HIV+ serum to peptide (sera/NHS ratio) [1, 10] | Binding of maternal HIV+ serum to peptide (sera/NHS ratio) [1, 11] | Binding of maternal HIV+ serum to peptide (sera/NHS ratio) [1, 12] | Binding of maternal HIV+ serum to peptide (sera/NHS ratio) [1, 13] | Binding of maternal HIV+ serum to peptide (sera/NHS ratio) [1, 14] | Binding of maternal HIV+ serum to peptide (sera/NHS ratio) [1, 15] | Binding of maternal HIV+ serum to peptide (sera/NHS ratio) [1, 16] | Binding of maternal HIV+ serum to peptide (sera/NHS ratio) [1, 17] | Binding of maternal HIV+ serum to peptide (sera/NHS ratio) [1, 18] | Binding of maternal HIV+ serum to peptide (sera/NHS ratio) [1, 19] | Binding of maternal HIV+ serum to peptide (sera/NHS ratio) [1, 20] | further results
1 | CFRPGGGDMRDNWREL [Peptide 466] | three | very strong binding | - (specific OD450 or cpm of sera sample binding to peptide divided by the specific OD450 or cpm of NHS sample binding to peptide, which value is less than 2) | - (specific OD450 or cpm of sera sample binding to peptide divided by the specific OD450 or cpm of NHS sample binding to peptide, which value is less than 2) | - (specific OD450 or cpm of sera sample binding to peptide divided by the specific OD450 or cpm of NHS sample binding to peptide, which value is less than 2) | - (specific OD450 or cpm of sera sample binding to peptide divided by the specific OD450 or cpm of NHS sample binding to peptide, which value is less than 2) | - (specific OD450 or cpm of sera sample binding to peptide divided by the specific OD450 or cpm of NHS sample binding to peptide, which value is less than 2) | + (which value is between 2 to 3) | - (specific OD450 or cpm of sera sample binding to peptide divided by the specific OD450 or cpm of NHS sample binding to peptide, which value is less than 2) | - (specific OD450 or cpm of sera sample binding to peptide divided by the specific OD450 or cpm of NHS sample binding to peptide, which value is less than 2) | ++ (which value is greater than 3) | - (specific OD450 or cpm of sera sample binding to peptide divided by the specific OD450 or cpm of NHS sample binding to peptide, which value is less than 2) | - (specific OD450 or cpm of sera sample binding to peptide divided by the specific OD450 or cpm of NHS sample binding to peptide, which value is less than 2) | - (specific OD450 or cpm of sera sample binding to peptide divided by the specific OD450 or cpm of NHS sample binding to peptide, which value is less than 2) | - (specific OD450 or cpm of sera sample binding to peptide divided by the specific OD450 or cpm of NHS sample binding to peptide, which value is less than 2) | - (specific OD450 or cpm of sera sample binding to peptide divided by the specific OD450 or cpm of NHS sample binding to peptide, which value is less than 2) | - (specific OD450 or cpm of sera sample binding to peptide divided by the specific OD450 or cpm of NHS sample binding to peptide, which value is less than 2) | - (specific OD450 or cpm of sera sample binding to peptide divided by the specific OD450 or cpm of NHS sample binding to peptide, which value is less than 2) | - (specific OD450 or cpm of sera sample binding to peptide divided by the specific OD450 or cpm of NHS sample binding to peptide, which value is less than 2) | + (which value is between 2 to 3) | Binding of maternal HIV+ serum to peptide (sera/NHS ratio) [1, 21]: - (specific OD450 or cpm of sera sample binding to peptide divided by the specific OD450 or cpm of NHS sample binding to peptide, which value is less than 2); Binding of maternal HIV+ serum to peptide (sera/NHS ratio) [1, 22]: - (specific OD450 or cpm of sera sample binding to peptide divided by the specific OD450 or cpm of NHS sample binding to peptide, which value is less than 2); Percent of the maternal serum samples that bound to the peptide ([1]; all 20 samples): 15%; Number of binding maternal sera from the non-transmission group [1]: three; Number of binding maternal sera from the transmission group [1]: Zero; Antisyncytial activity of non-transmission sera which reacted with the peptide ([2]; Example 5): possessed, to varying degrees, antisyncytial activity; Number of samples which bound the peptide and possessed anti-syncytial activity ([2]; sera which bound the peptide): all of them; Neutralizing activity of non-transmission sera which reacted with the peptide (HIV-IIIB viral isolate; Example 5): All 3 of these sera exhibited neutralizing activity; Number of samples which bound the peptide and possessed neutralization activity (HIV-IIIB viral isolate; sera which bound the peptide): all of them
2 | TLPCASDAKAYDTEV [Peptide 93] | six | Several maternal serum samples had reactivity | ++ (which value is greater than 3) | - (specific OD450 or cpm of sera sample binding to peptide divided by the specific OD450 or cpm of NHS sample binding to peptide, which value is less than 2) | - (specific OD450 or cpm of sera sample binding to peptide divided by the specific OD450 or cpm of NHS sample binding to peptide, which value is less than 2) | ++ (which value is greater than 3) | - (specific OD450 or cpm of sera sample binding to peptide divided by the specific OD450 or cpm of NHS sample binding to peptide, which value is less than 2) | + (which value is between 2 to 3) | ++ (which value is greater than 3) | + (which value is between 2 to 3) | - (specific OD450 or cpm of sera sample binding to peptide divided by the specific OD450 or cpm of NHS sample binding to peptide, which value is less than 2) | - (specific OD450 or cpm of sera sample binding to peptide divided by the specific OD450 or cpm of NHS sample binding to peptide, which value is less than 2) | - (specific OD450 or cpm of sera sample binding to peptide divided by the specific OD450 or cpm of NHS sample binding to peptide, which value is less than 2) | - (specific OD450 or cpm of sera sample binding to peptide divided by the specific OD450 or cpm of NHS sample binding to peptide, which value is less than 2) | - (specific OD450 or cpm of sera sample binding to peptide divided by the specific OD450 or cpm of NHS sample binding to peptide, which value is less than 2) | - (specific OD450 or cpm of sera sample binding to peptide divided by the specific OD450 or cpm of NHS sample binding to peptide, which value is less than 2) | - (specific OD450 or cpm of sera sample binding to peptide divided by the specific OD450 or cpm of NHS sample binding to peptide, which value is less than 2) | + (which value is between 2 to 3) | - (specific OD450 or cpm of sera sample binding to peptide divided by the specific OD450 or cpm of NHS sample binding to peptide, which value is less than 2) | - (specific OD450 or cpm of sera sample binding to peptide divided by the specific OD450 or cpm of NHS sample binding to peptide, which value is less than 2) | Binding of maternal HIV+ serum to peptide (sera/NHS ratio) [1, 21]: - (specific OD450 or cpm of sera sample binding to peptide divided by the specific OD450 or cpm of NHS sample binding to peptide, which value is less than 2); Binding of maternal HIV+ serum to peptide (sera/NHS ratio) [1, 22]: - (specific OD450 or cpm of sera sample binding to peptide divided by the specific OD450 or cpm of NHS sample binding to peptide, which value is less than 2); Number of binding maternal sera from the non-transmission group [1]: 5; Percent of binding maternal sera from the non-transmission group ([1]; of the sera which bound): 83%; Percent of binding maternal sera from the transmission group ([1]; of the sera which bound): 17%; Number of binding maternal sera from the transmission group [1]: 1; Number of samples which bound the peptide and possessed anti-syncytial activity ([2]; sera which bound the peptide): 6; Percent of samples which bound the peptide and possessed anti-syncytial activity ([2]; sera which bound the peptide): 100%; Number of samples which bound the peptide and possessed neutralization activity (HIV-IIIB viral isolate; sera which bound the peptide): 3; Percent of samples which bound the peptide and possessed neutralization activity (HIV-IIIB viral isolate; sera which bound the peptide): 50%
